From patent US7776558B2, “Human G protein-coupled receptor and modulators thereof for the treatment of cell death-related disorders” (Arena Pharmaceuticals, Inc., priority 2003, dated 2010)
“Also recorded” adds a separate entry of the source. Where no end group is shown, it is not given here.

Assays:
[1] = target: T1, FPRL2 (Homo sapiens, UniProt P25089); assay: Whole cell adenylate cyclase (cAMP) assay, stably transfected HEK293 cells; format: cell-based; design: expressed in transfected cells; settings: in the presence of 5 μM forskolin, FIG. 6
T1 sequence (P25089 1-353): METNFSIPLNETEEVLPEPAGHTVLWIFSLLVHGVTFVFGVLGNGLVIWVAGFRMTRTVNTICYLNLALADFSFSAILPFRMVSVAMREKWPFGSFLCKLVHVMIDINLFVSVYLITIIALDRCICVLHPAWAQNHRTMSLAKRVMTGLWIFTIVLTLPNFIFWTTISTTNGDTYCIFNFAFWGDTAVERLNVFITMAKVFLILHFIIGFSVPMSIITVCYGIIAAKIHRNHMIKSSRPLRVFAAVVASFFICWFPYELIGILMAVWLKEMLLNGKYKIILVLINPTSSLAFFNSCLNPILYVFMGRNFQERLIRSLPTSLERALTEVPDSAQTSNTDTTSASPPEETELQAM
Text: A Flash Plate™ Adenylyl Cyclase kit (New England Nuclear; Cat. No. SMP004A) designed for cell-based assays can be modified for use with crude plasma membranes. The Flash Plate wells can contain a scintillant coating which also contains a specific antibody recognizing cAMP. The cAMP generated in the wells can be quantitated by a direct competition for binding of radioactive cAMP tracer to the cAMP antibody. The following serves as a brief protocol for the measurement of changes in cAMP levels in whole cells that express the receptors.
Transfected cells are harvested approximately twenty four hours after transient transfection. Media is carefully aspirated off and discarded. 10 ml of PBS is gently added to each dish of cells followed by careful aspiration. 1 ml of Sigma cell dissociation buffer and 3 ml of PBS are added to each plate. Cells are pipetted off the plate and the cell suspension is collected into a 50 ml conical centrifuge tube. Cells are then centrifuged at room temperature at 1,100 rpm for 5 min. The cell pellet is carefully re-suspended into an appropriate volume of PBS (about 3 ml/plate). The cells are then counted using a hemocytometer and additional PBS is added to give the appropriate number of cells (with a final volume of about 50 μl/well).
cAMP standards and Detection Buffer (comprising 1 μCi of tracer [^125I cAMP (50 μl] to 11 ml Detection Buffer) is prepared and maintained in accordance with the manufacturer's instructions. Assay Buffer is prepared fresh for screening and contains 50 μl of Stimulation Buffer, 3 ul of test compound (12 μM final assay concentration) and 50 μl cells, Assay Buffer is stored on ice until utilized. The assay is initiated by addition of 50 μl of cAMP standards to appropriate wells followed by addition of 50 ul of PBSA to wells H-11 and H12. 50 μl of Stimulation Buffer is added to all wells. DMSO (or selected candidate compounds) is added to appropriate wells using a pin tool capable of dispensing 3 μl of compound solution, with a final assay concentration of 12 μM test compound and 100 μl total assay volume. The cells are then added to the wells and incubated for 60 min at room temperature. 100 μl of Detection Mix containing tracer cAMP is then added to the wells. Plates are then incubated additional 2 hours followed by counting in a Wallac MicroBeta scintillation counter. Values of cAMP/well are then extrapolated from a standard cAMP curve which is contained within each assay plate.
In FIG. 6, agonist activity was determined through adenylate cyclase activity. […] Samples were then assessed for the level of intracellular cAMP as described in Example 4, supra.

[2] = target: T1, FPRL2; assay: IP3 assay, HEK293 cells transiently transfected with FPRL2 and Gα16; format: cell-based; design: expressed in transfected cells; host or cells: HEK293 cells, transient, lipofectamine; settings: FIG. 8
Procedure: On day 1, cells comprising the receptors (endogenous and/or non-endogenous) can be plated onto 24 well plates, usually 1×10^5 cells/well (although his umber can be optimized. On day 2 cells can be transfected by firstly mixing 0.25 μg DNA in 50 μl serum free DMEM/well and 2 μl lipofectamine in 50 μl serum free DMEM/well. The solutions are gently mixed and incubated for 15-30 min at room temperature. Cells are washed with 0.5 ml PBS and 400 μl of serum free media is mixed with the transfection media and added to the cells. The cells are then incubated for 3-4 […] at 37° C./5% CO2 and then the transfection media is removed and replaced with 1 ml/well of regular growth media. On day 3 the cells are labeled with ^3H-myo-inositol. Briefly, the media is removed and the cells are washed with 0.5 ml PBS. Then 0.5 ml inositol-free/serum free media (GIBCO BRL) is added/well with 0.25 μCi of ^3H-myo-inositol/well and the cells are incubated for 16-18 hrs o/n at 37° C./5% CO2. On Day 4 the cells are washed with 0.5 ml PBS and 0.45 ml of assay medium is added containing inositol-free/serum free media 10 μM pargyline 10 mM lithium chloride or 0.4 ml of assay medium and 50 μl of 10× ketanserin (ket) to final concentration of 10 μM. The cells are then incubated for 30 min at 37° C. The cells are then washed with 0.5 ml PBS and 200 μl of fresh/ice cold stop solution (1M KOH; 18 mM Na-borate; 3.8 mM EDTA) is added/well. The solution is kept on ice for 5-10 min or until cells were lysed and then neutralized by 200 μl of fresh/ice cold neutralization sol. (7.5% HCL). The lysate is then transferred into 1.5 ml eppendorf tubes and 1 ml of chloroform/methanol (1:2) is added/tube. The solution is vortexed for 15 sec and the upper phase is applied to a Biorad AG1-X8™ anion exchange resin (100-200 mesh). […]
Briefly, HEK293 cells were transiently transfected with 6 μg FPRL2 plasmid DNA and 6 μg Gα16 plasmid DNA per 10^7 cells per 15 cm culture dish using lipofectamine (Invitrogen). […] The level of intracellular IP3 was determined as described in Example 4, supra.

Compound | Agonist activity at FPRL2, intracellular cAMP [1] | Level of intracellular IP3 (FPRL2 coupling to Gα16) [2] | Agonist activity at FPRL2, intracellular cAMP ([1]; listed as Human)
CC(C)c1ccc2c(c1)CCC1C(C)(C(N)=O)CCCC21C (stereo not shown) [Compound 1, 7-Isopropyl-1,4a-dimethyl-1,2,3,4,4a,9,10,10a-octahydro-phenanthrene-1-carboxylic acid amide] | selectively an agonist of FPRL2 | dose-dependent elevation of the level of intracellular IP3 | –
CC[C@H](C)[C@H](NC(=O)[C@H](CCC(=O)O)NC(=O)[C@H](CO)NC(=O)[C@@H](NC(=O)[C@H](CC(C)C)NC(=O)[C@H](CC(C)C)NC(=O)[C@H](CC(C)C)NC(=O)[C@H](CC(C)C)NC(=O)[C@H](CS)NC(=O)[C@H](CO)NC(=O)[C@H](Cc1ccccc1)NC(=O)CNC(=O)[C@H](CCCNC(=N)N)NC(=O)[C@@H]1CCCN1C(=O)[C@H](C)NC(=O)[C@@H](N)CCSC)[C@@H](C)O)C(=O)N[C@@H](CC(=O)O)C(=O)N[C@@H](CC(C)C)C(=O)N1CCC[C@H]1C(=O)N[C@H](C(=O)N[C@@H](CCCCN)C(=O)N[C@@H](CCCNC(=N)N)C(=O)N[C@@H](CCCNC(=N)N)C(=O)N[C@@H](C)C(=O)O)C(C)C [Humanin] | agonists of both FPRL1 and FPRL2 | dose-dependent elevation of the level of intracellular IP3 | agonists of both FPRL2 and FPRL1
MAPRGFSCLLLLTGEIDLPVKRRA [[Gly14]-Humanin] | agonists of both FPRL1 and FPRL2; also recorded: agonists of both FPRL2 and FPRL1 | dose-dependent elevation of the level of intracellular IP3 | –
